Values joined by “and” are separate entries in the source; they are usually repeats but may differ in a detail not shown here. Equal values may be shown once. “Also recorded” adds a separate entry of the source. Read-outs that look alike come from different tables or passages of the source.
Experiments:
[1] = parameters: species or system New Zealand White rabbits; conditions: rabbit, in vivo; for antibody titers to the immunizing peptide (ELISA): sc
[2] = test system: PBMC stimulated with SPEC; assay type: cell-based, human; conditions: 72 hours
[3] = test system: PBMC stimulated with SEC; assay type: cell-based, human; conditions: 72 hours
[4] = test system: PBMC stimulated with SPEG; assay type: cell-based, human; conditions: 72 hours
[5] = molecular target: SPEA (Streptococcus pyogenes phage T12, UniProt P0DJY8); conditions: mouse, in vivo
Sequence of SPEA (P0DJY8 31-251): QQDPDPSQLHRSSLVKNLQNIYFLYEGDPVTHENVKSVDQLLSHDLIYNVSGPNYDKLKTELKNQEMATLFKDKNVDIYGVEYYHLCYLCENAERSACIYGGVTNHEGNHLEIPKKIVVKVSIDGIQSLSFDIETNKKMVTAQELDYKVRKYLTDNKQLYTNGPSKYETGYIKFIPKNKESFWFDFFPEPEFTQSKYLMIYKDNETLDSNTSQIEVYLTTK

[6] = test system: PBMC stimulated with SPEH; assay type: cell-based, human; conditions: 72 hours
[7] = molecular target: TSST-1 (Staphylococcus aureus, UniProt P06886); conditions: mouse, in vivo
Sequence of TSST-1 (P06886 41-234 limits assumed): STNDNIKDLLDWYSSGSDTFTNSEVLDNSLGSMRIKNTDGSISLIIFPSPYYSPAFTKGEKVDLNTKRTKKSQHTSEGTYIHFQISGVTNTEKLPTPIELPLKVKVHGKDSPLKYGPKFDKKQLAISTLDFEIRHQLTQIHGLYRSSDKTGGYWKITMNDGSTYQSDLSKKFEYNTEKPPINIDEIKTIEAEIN

[8] = test system: purified MHC class II molecules; assay type: binding
[9] = molecular target: SEB (Staphylococcus aureus, UniProt P01552); conditions: mouse, in vivo
Sequence of SEB (P01552 28-266 limits assumed): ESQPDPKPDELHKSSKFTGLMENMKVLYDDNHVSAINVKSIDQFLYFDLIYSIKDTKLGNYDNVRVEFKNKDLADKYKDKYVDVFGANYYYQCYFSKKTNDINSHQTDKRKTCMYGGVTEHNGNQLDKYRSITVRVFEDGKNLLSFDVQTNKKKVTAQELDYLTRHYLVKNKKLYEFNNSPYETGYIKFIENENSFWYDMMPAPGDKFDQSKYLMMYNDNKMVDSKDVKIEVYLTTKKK

[10] = test system: PBMC stimulated with SED; assay type: cell-based, human; conditions: 72 hours
[11] = test system: PBMC stimulated with SEB; assay type: cell-based, human; conditions: 72 hours
[12] = test system: PBMC stimulated with TSST-1; assay type: cell-based, human; conditions: 72 hours
[13] = test system: PBMC stimulated with SPEZ; assay type: cell-based, human; conditions: 72 hours
[14] = test system: PBMC stimulated with SPEA; assay type: cell-based, human; conditions: 72 hours
[15] = parameters: species or system mice; conditions: mouse, in vivo

CGKKNVTVQELDYKIRKYLVDNKKLYGC* [peptide 6346]
antibody titers to the immunizing peptide (ELISA) [1]: high titers

CMYGGVTEHEGNGC* [compound 6344]
antibody titers to the immunizing peptide (ELISA) [1]: high titers

CMYGGVTEHEGNKKNVTVQELDYKIRKYLVDNKKLYGC* [peptide 6348]
antibody titers to the immunizing peptide (ELISA) [1]: high titer antibodies; also recorded: significant antibody titers

CMYGGVTEHEGN [peptide 6343]
inhibition of blastogenesis (tritiated thymidine incorporation) [2]: inhibited blastogenesis
inhibition of blastogenesis (tritiated thymidine incorporation) [3]: inhibited blastogenesis
inhibition of blastogenesis (tritiated thymidine incorporation) [4]: inhibited blastogenesis
Alive/Total SPEA [5]: 2 out of 2 and 2/2 (100%)
Alive/Total SPEA, percent alive [5]: 2/2 (100%)
inhibition of blastogenesis (tritiated thymidine incorporation) [6]: inhibited blastogenesis
Alive/Total TSST-1 [7]: 2 out of two and 2/2 (100%)
Alive/Total TSST-1, percent alive [7]: 2/2 (100%)
binding to the MHC complex [8]: binds very strongly
competition for the site of SEB binding on MHC (decreased anti-SEB antibody binding) [8]: able to compete effectively; also recorded: decreased anti-SEB binding at increased concentrations
Alive/Total SEB [9]: 5 out of 6 and 5/6 (83%)
Alive/Total SEB, percent alive [9]: 5/6 (83%)
induction of detectable antibodies [1]: does not induce detectable antibodies
inhibition of blastogenesis (tritiated thymidine incorporation) [10]: inhibited blastogenesis
inhibition of blastogenesis (tritiated thymidine incorporation) [11]: inhibited blastogenesis
inhibition of blastogenesis, dose response [11]: dose-response inhibition of blastogenesis
inhibitory activity of SEB compared with peptide 6346 or peptide 6348 [11]: more inhibitory activity
inhibition of blastogenesis (tritiated thymidine incorporation) [12]: inhibited blastogenesis
inhibition of blastogenesis (tritiated thymidine incorporation) [13]: inhibited blastogenesis
inhibition of blastogenesis (tritiated thymidine incorporation) [14]: inhibited blastogenesis
induction of detectable antibodies [15]: does not induce detectable antibodies

From US7115268B1, “Peptides useful for reducing symptoms of toxic shock syndrome and septic shock” (The Rockefeller University, priority 1997, dated 2006)
